According to patent US11020405B2, “Method for prevention or treatment of diabetic complications” (KANGWON NATIONAL UNIVERSITY UNIVERSITY-INDUSTRY COOPERATION …, priority 2017, dated 2021):

How the values were obtained:
[1] = system: aortic endothelium of diabetic mice; test: Hyperglycemia-induced endothelial apoptosis in aortic endothelium of diabetic mice (TUNEL); type: in vivo, C57BL/6 mice; details: midazolam 10 mg/kg intraperitoneal daily for 14 days (FIG. 19)
Description: FIGS. 19A and 19B show the preventive effects of midazolam against hyperglycemia-induced endothelial apoptosis in the aortic endothelium of diabetic mice. Six-week-old male C57BL/6 mice were administered with streptozotocin (150 mg/kg body weight) to give diabetic mouse models. One week after streptozotocin injection, diabetic mice were administered midazolam (10 mg/kg) by intraperitoneal injection daily for 14 days. The body weight of mice were measure in normal (20.7±0.1 g), diabetic (17.1±0.1 g), and midazolam supplemented diabetic mice (17.0±0.3 g). Blood glucose levels were also monitored in normal (124.0±12.0 mg/dL), diabetic (509.0±1.0 mg/dL), and midazolam supplemented diabetic mice (515.7±3.4 mg/dL). Aorta of mice were dissected and cut longitudinally to expose the endothelium. And then aortic segments were fixed for 15 min with 1% (w/v) paraformaldehyde in PBS, followed by treatment for 30 min with 70% (v/v) ethanol on ice. Apoptotic cells were stained by terminal deoxynucleotidyl transferase dUTP nick end labeling (TUNEL) with nuclear counterstaining with DAPI and visualized by confocal microscopy in the aortic endothelium. […] The results of endothelial apoptosis quantitatively analyzed by measurement of TUNEL staining in the aorta are shown in additional FIG. 19B (n=4 for normal and diabetic, n=6 for diabetic+Midazolam).

[2] = system: TGase; test: Analysis of TGase activity in retinas of diabetic mouse model; type: in vivo, C57BL/6 mice; details: intravitreal 2 μL of 2 mM midazolam, 2 μM cystamine or 500 mM MDC (FIGS. 14, 15)
Description: 6-week-old male C57BL/6 mice (DBL, EumSeong, Korea) were administered with streptozotocin (Sigma-Aldrich) dissolved in a 100 mM citrate buffer (pH 4.5) through intraperitoneal injection in an amount of 150 mg each per kg of mouse weight to give diabetic mouse models. In the diabetic mouse models, the blood glucose level was 19 mM or more when not fasting, and polyuria and diabetes, considered signs of diabetes, were observed. […]
48 μL of 100 mM 5-(biotinamido)pentylamine was injected into the left ventricle of each of normal mice (Normal), midazolam-administered normal mice (Midazolam), diabetic mice (Diabetic), midazolam-administered diabetic mice (Diabetic+Midazolam), flumazenil- and midazolam-administered diabetic mice (Diabetic+flumazenil+Midazolam), cystamine-administered diabetic mice (Diabetic+cystamine) and MDC-administered diabetic mice (Diabetic+MDC) and circulated for 10 min, after which cervical dislocation was performed, and the eyeballs were extracted, fixed with 4% paraformaldehyde for 45 min, incised and subjected to permeation treatment for 30 min. The obtained retinal samples were incubated with a blocking solution for 30 min, treated with FITC-conjugated streptavidin (1:200, v/v), stained for 1 hr, and measured using confocal microscopy. […]

[3] = system: B16F10 cells; test: Hyperglycemia-induced cancer metastasis in lungs of diabetic mice (melanoma nodules); type: in vivo, C57BL/6 mice; details: 10 mg/kg midazolam intraperitoneal daily for 14 days, B16F10 cells intravenously (FIG. 22)
Description: FIGS. 22A and 22B show the preventive effects of midazolam against hyperglycemia-induced cancer metastasis in the lungs of diabetic mice. Six-week-old male C57BL/6 mice were administered with streptozotocin (150 mg/kg) to give diabetic mouse models. One weeks after streptozotocin injection, diabetic mice were administered 10 mg/kg midazolam by intraperitoneal injection daily for 14 days, and diabetic and midazolam supplemented diabetic mice were intravenously injected with B16F10 cells (5×10^5) in PBS. The weight of mice were measure in diabetic (16.4±0.2 g) and midazolam supplemented diabetic mice (16.2±0.5 g). Blood glucose levels were also monitored in diabetic (511.0±10.0 mg/dL) and midazolam supplemented diabetic mice (515.7±3.4 mg/dL). Two weeks later, the mice were euthanized by cervical dislocation, and the lungs were removed and bleached in Fekete's solution (70% ethanol, 3.7% paraformaldehyde, 0.75 M glacial acetic acid). Representative images of melanoma metastasis in lungs are shown in additional FIG. 22A. The results of melanoma metastasis assessed by counting metastatic lung nodules under a dissection microscope are shown in additional FIG. 22B (n=2/group).

[4] = system: VE-cadherin; test: Analysis of adherens junction (VE-cadherin staining); type: cell-based, human; details: HRECs, 10 ng/mL VEGF 90 min with 20 μM midazolam, 5 μM BAPTA-AM, 1 mM NAC, 0.5 μM Trolox, 50 μM cystamine or 20 μM MDC (FIGS. 5, 6)
Description: Purchased from Applied Cell Biology Research Institute (Cell Systems, Kirkland, Wash.), human retinal endothelial cells (HRECs) were cultured in an M19 medium, containing 20% FBS, 3 ng/mL bFGF, 5 U/mL heparin, 100 U/mL penicillin and […], in a 2% gelatin-coated plate.
Before the following Test Examples 2 to 7, the HRECs were cultured for 6 hr in a medium containing 1% FBS and an antibiotic agent, thus preparing HRECs of Test Example 1.
The HRECs of Test Example 1 were subjected to the respective treatments below and cultured for 30 min. Here, treatment with 10 ng/mL VEGF was performed for 90 min. Thereafter, the HRECs were treated with 1 mM 5-(biotinamido)pentylamine, incubated for 1 hr, fixed with 3.7% formaldehyde, treated with 0.2% triton X-100, treated with a blocking solution containing 138 mM NaCl, 0.1% Tween 20 and 2% BSA dissolved in a 20 mM Tris (pH 7.6) buffer, incubated for 30 min, incubated with a monoclonal VE-cadherin antibody (1:200; Santa Cruz Biotechnology) for 12 hr or more (overnight), incubated with a FITC-conjugated goat anti-mouse antibody (1:200; Sigma-Aldrich), and then measured using confocal microscopy. Some (the following i), iii), iv), vi), ix)) of the results are shown in FIG. 5 and the VE-cadherin concentrations in the portions represented by the dotted lines in FIG. 5 are shown in FIG. 6. With reference to FIG. 6, 10 randomly selected cells were measured to determine the fluorescence intensity of single cells and thus quantify VE-cadherin.
VE-cadherin, which is a protein that mediates adherens junction, was analyzed to evaluate adherens junction.

With Cc1ncc2n1-c1ccc(Cl)cc1C(c1ccccc1F)=NC2 [midazolam] the “hyperglycemia-induced endothelial apoptosis in aorta (TUNEL staining)” value [1] was “inhibited the hyperglycemia-induced apoptosis of diabetic aortas”, the “TGase activity in retina compared to normal mice” value [2] was “an increase in TGase activation was suppressed” and the “number of metastatic nodules in the lungs” value [3] was “the number of metastatic nodules in the lungs of diabetic mice was suppressed”. The “VE-cadherin concentration / adherens junction disruption due to VEGF” value [4] was “exhibited the effect of preventing the adherens junction disruption due to VEGF”.
